Test results: patent publication US20040076581A1, “Use of neuropeptide y1 receptor binding compounds in the treatment and diagnosis of cancer” (priority 2000, published 2004)
“Also recorded” adds a separate entry of the source.

Assays:
[1] = target: T1, Y1 in human breast carcinoma (Homo sapiens, UniProt P25929); test: NPY receptor autoradiography, displacement of 125I-PYY in breast carcinoma sections; type: binding; details: FIG. 2; increasing concentrations; Y1-expressing breast tumor
T1 construct: Twenty-μm thick cryostat sections of the tissue samples were processed for NPY receptor autoradiography; from tissue; host or cells: human breast carcinoma cryostat sections
T1 sequence (P25929 1-384): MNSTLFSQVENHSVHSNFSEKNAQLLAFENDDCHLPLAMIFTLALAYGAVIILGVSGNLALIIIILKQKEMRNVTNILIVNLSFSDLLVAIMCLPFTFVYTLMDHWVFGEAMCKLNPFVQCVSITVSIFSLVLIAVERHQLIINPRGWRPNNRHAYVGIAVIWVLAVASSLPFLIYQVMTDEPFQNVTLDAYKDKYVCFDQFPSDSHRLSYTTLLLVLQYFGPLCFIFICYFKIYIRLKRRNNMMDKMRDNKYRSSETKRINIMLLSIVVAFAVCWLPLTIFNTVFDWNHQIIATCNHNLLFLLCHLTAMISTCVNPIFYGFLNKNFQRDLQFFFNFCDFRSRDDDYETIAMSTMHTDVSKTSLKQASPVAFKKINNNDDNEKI
Protocol: For autoradiography, tissue sections were mounted on precleaned microscope slides and stored at −20° C. for at least 3 days to improve adhesion of the tissue to the slide.
(§1) On completion of the incubation, the slides were washed four times for 5 min each in ice-cold preincubation solution, pH 7.4. They were rinsed twice in ice-cold distilled water, and then dried under a stream of cold air at 4° C., apposed to ^3H-Hyperfilms and exposed for 7 days in x-ray cassettes.
(§2) Tissue standards for iodinated compounds (Amersham) were used for this purpose.

[2] = target: T2, Y2 receptors in normal breast (Homo sapiens, UniProt P49146); test: NPY receptor autoradiography, displacement of 125I-PYY in adjacent normal breast sections; type: binding; details: FIG. 1; surrounding normal breast expressing predominantly Y2
T2 construct: Twenty-μm thick cryostat sections of the tissue samples were processed for NPY receptor autoradiography; from tissue; host or cells: human normal breast tissue adjacent to carcinoma, cryostat sections
T2 sequence (P49146 1-381): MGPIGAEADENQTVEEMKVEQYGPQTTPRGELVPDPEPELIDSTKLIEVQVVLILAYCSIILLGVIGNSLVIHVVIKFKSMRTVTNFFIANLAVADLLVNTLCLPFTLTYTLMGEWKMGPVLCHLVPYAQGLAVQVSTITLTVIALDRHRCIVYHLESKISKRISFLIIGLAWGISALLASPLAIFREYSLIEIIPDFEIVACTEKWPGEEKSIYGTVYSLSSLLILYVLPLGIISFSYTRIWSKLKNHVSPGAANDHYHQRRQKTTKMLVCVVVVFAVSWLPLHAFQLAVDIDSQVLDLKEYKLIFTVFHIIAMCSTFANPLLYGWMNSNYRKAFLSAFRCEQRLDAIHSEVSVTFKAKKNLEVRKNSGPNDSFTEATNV
Protocol: For autoradiography, tissue sections were mounted on precleaned microscope slides and stored at −20° C. for at least 3 days to improve adhesion of the tissue to the slide. […] The slides were incubated at room temperature with the radioligand for 120 min.
In selected cases, displacements with a single concentration (25 nM) of each of the above mentioned peptides were performed.
as §1, §2

[3] = target: T3, NPY receptors in breast carcinoma (Homo sapiens, UniProt P25929); test: NPY receptor autoradiography, total binding of radioligands to breast carcinoma
T3 construct: Twenty-μm thick cryostat sections of the tissue samples were processed for NPY receptor autoradiography; from tissue; host or cells: human breast carcinoma cryostat sections
T3 sequence (P25929 1-384): T1 sequence (P25929 1-384)
Protocol: (§3) Twenty-μm thick cryostat sections of the tissue samples were processed for NPY receptor autoradiography as described in detail previously for other peptide receptors (Reubi, J. C. et al. Cancer Res. 50, 5969-5977 (1990)). One radioligand used was ^125I-PYY (2'000 Ci/mmol; […], Switzerland), known to specifically label NPY receptors. For autoradiography, tissue sections were mounted on precleaned microscope slides and stored at -20° C. for at least 3 days to improve adhesion of the tissue to the slide. Sections were then processed according to Dumont et al. (J. Neurosci. 13, 73-86 (1993)). They were first preincubated in 119 mM NaCl, 3.2 mM KCl, 1.19 mM KH2PO4, 1.19 mm MgSO4, 25 mM NaHCO3, 2.53 mM CaCl2×2H2O and 10 mM D-glucose, pH 7.4 (preincubation solution), for 60 min at room temperature. The slides were then incubated in a solution containing the same medium as the preincubation solution in which the following compounds were added: 0.1% bovine serum albumin, 0.05% bacitracin, pH 7.4, and the radioligand, at approximate concentration of 22 pM ^125I-PYY. The slides were incubated at room temperature with the radioligand for 120 min. On completion of the incubation, the slides were washed four times for 5 min each in ice-cold preincubation solution, pH 7.4. They were rinsed twice in ice-cold distilled water, and then dried under a stream of cold air at 4° C., apposed to ^3H-Hyperfilms and exposed for 7 days in x-ray cassettes. […] Int 21, 45-67 (1992); […] Neurosci. 76, 215-224 (1997)). Identical experimental conditions as mentioned for ^125I-PYY were used. The autoradiograms were quantified using a computer-assisted image processing system, as described previously (Reubi et al. (1990), supra; […] & Reubi Can. Res. 59,1152-1159 (1999)). Tissue standards for iodinated compounds (Amersham) were used for this purpose. A tissue was defined as receptor-positive when the optical density measured in the total binding section was at least twice that of the nonspecific binding section (in the presence of 10^-7 mol/L PYY).

[4] = system: NPY receptors in normal breast; test: NPY receptor autoradiography, total binding of radioligands to adjacent normal breast; set-up: species or system human; details: FIG. 1
Protocol: as §3

Compound | labeling of tumor by radioligand (total binding) ([3]; FIG. 1) | labeling of breast by radioligand (total binding) [4] | displacement of 125I-PYY, competition curves [1] | further results
[Leu^31, Pro^34]-PYY |  |  | completely displace the radiotracer with high affinity; also recorded: high affinity displacement | affinity in surrounding breast (rank order of potency) [2]: low affinity
^125I-PYY(3-36) | not seen | labeled |  | 
PYY(13-36) |  |  | not | 
[Leu^31, Pro^34]-NPY |  |  |  | affinity in surrounding breast (rank order of potency) [2]: low affinity
C[C@H](N)C(=O)NCC(=O)N[C@H]1CSSC[C@@H](C(=O)O)NC(=O)[C@H](CO)NC(=O)[C@H]([C@@H](C)O)NC(=O)[C@H](Cc2ccccc2)NC(=O)[C@H]([C@@H](C)O)NC(=O)[C@H](CCCCN)NC(=O)[C@H](Cc2c[nH]c3ccccc23)NC(=O)[C@H](Cc2ccccc2)NC(=O)[C@H](Cc2ccccc2)NC(=O)[C@H](CC(N)=O)NC(=O)[C@H](CCCCN)NC1=O [Somatostatin] |  |  | inactive | 
PYY: member of the NPY family of 36 amino acid long peptides [peptide YY] |  |  | high affinity displacement | 

More lines, main results first:

labeling of tumor by radioligand (total binding) ([3]; FIG. 1) | labeling of breast by radioligand (total binding) [4] | Compound | displacement of 125I-PYY, competition curves [1] | further results
strongly labeled | not or only very weakly visible | ^125I-[Leu^31, Pro^34]-PYY |  | labeling of tumor by radioligand (total binding) ([3]; FIG. 1, Pro^34]-PYY): labeled
strong labeling | strong labeling | ^125I-PYY |  | 
